Assay results reported in ChEMBL document CHEMBL1201862, “PubChem BioAssay data set” (2004).
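Test compounds were applied to cells in 96-well plates for 48 hours at 5 doses. GI50: concentration for 50% inhibition of growth.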 Activity calls are given as the source filed them. Rule as the data show it: active = GI50 up to about 1.1 µM and inactive = higher.

How the values were obtained:
Test in all cases: growth of human tumour cells (NCI), 48 h
[1] = test system: SF-295
[2] = test system: NCI-H226
[3] = test system: DMS-273
[4] = test system: 786-0
[5] = test system: UACC-257
[6] = test system: K562
[7] = test system: NCI-H460
[8] = test system: SNB-19
[9] = test system: CCRF-CEM
[10] = test system: OVCAR-5
[11] = test system: COLO 205
[12] = test system: HCC 2998
[13] = test system: UACC-62
[14] = test system: RXF 393
[15] = test system: DU-145
[16] = test system: PC-3
[17] = test system: ACHN
[18] = test system: BT-549
[19] = test system: SNB-75
[20] = test system: OVCAR-3

| SMILES | GI50 [1] | GI50 [2] | GI50 [3] | GI50 [4] | GI50 [5] | GI50 [6] | GI50 [7] | GI50 [8] | GI50 [9] | GI50 [10] | GI50 [11] | GI50 [12] | GI50 [13] | GI50 [14] | GI50 [15] | GI50 [16] | GI50 [17] | GI50 [18] | GI50 [19] | GI50 [20] |
| --- | --- | --- | --- | --- | --- | --- | --- | --- | --- | --- | --- | --- | --- | --- | --- | --- | --- | --- | --- | --- |
| CC(C)(C)NC(=O)C12C3C4C1C1C2C3C41I (centres undefined) | > 100 µM (inactive) | > 100 µM (inactive) | > 100 µM (inactive) | > 100 µM (inactive) | > 100 µM (inactive) | > 100 µM (inactive) | > 100 µM (inactive) | > 100 µM (inactive) | > 100 µM (inactive) | > 100 µM (inactive) | > 100 µM (inactive) | > 100 µM (inactive) |  |  |  |  |  |  |  |  |
| O=C1NNC(=O)c2ccccc2SSc2ccccc2C(=O)NNC(=O)c2ccccc2SSc2ccccc21 | 2.45 µM (inactive) | > 50 µM (inactive) |  | 13.5 µM (inactive) | 19.9 µM (inactive) | 12.9 µM (inactive) | 5.97 µM (inactive) | 25.9 µM (inactive) | 1.26 µM (inactive) | 16.9 µM (inactive) | 17.2 µM (inactive) | > 100 µM (inactive) | 16.7 µM (inactive) | > 50 µM (inactive) | 21.4 µM (inactive) | 19.5 µM (inactive) | 14 µM (inactive) | 11.5 µM (inactive) | 40.1 µM (inactive) | 16.9 µM (inactive) |
| O=C(Oc1ccc(OC(Oc2ccccc2)c2ccccc2)cc1)c1ccccc1 (centres undefined) | 14.7 µM (inactive) | > 31.6 µM (inactive) |  | > 31.6 µM (inactive) | 17.9 µM (inactive) | > 31.6 µM (inactive) | > 63.2 µM (inactive) | > 31.6 µM (inactive) | 17.3 µM (inactive) | > 74.1 µM (inactive) | > 31.6 µM (inactive) | 17.6 µM (inactive) | > 31.6 µM (inactive) | > 92.3 µM (inactive) | > 31.6 µM (inactive) | 25.6 µM (inactive) | 26.7 µM (inactive) | 26.5 µM (inactive) | 27.5 µM (inactive) | 25.4 µM (inactive) |
| CN(C)/N=N/c1nc2c(c(=O)n(C)c(=O)n2C)n1CC(O)CO (centres undefined) | > 100 µM (inactive) | > 100 µM (inactive) |  | > 100 µM (inactive) | > 100 µM (inactive) | > 100 µM (inactive) | > 100 µM (inactive) | > 100 µM (inactive) | > 100 µM (inactive) | > 100 µM (inactive) | > 100 µM (inactive) | > 100 µM (inactive) | > 100 µM (inactive) | > 100 µM (inactive) | > 100 µM (inactive) | > 100 µM (inactive) | > 100 µM (inactive) | > 100 µM (inactive) | > 100 µM (inactive) | > 100 µM (inactive) |
| Cc1ccc(S(=O)(=O)NNC(=O)Nc2ccc([N+](=O)[O-])cc2)cc1 | 36.6 µM (inactive) | > 100 µM (inactive) |  | 24.9 µM (inactive) | 46.5 µM (inactive) | 38.4 µM (inactive) | 23.9 µM (inactive) | 69.5 µM (inactive) | 45.3 µM (inactive) | > 100 µM (inactive) | 42.3 µM (inactive) | 64.9 µM (inactive) | 22.8 µM (inactive) | > 100 µM (inactive) | 83.2 µM (inactive) | 26.1 µM (inactive) | > 100 µM (inactive) | 78.9 µM (inactive) | 72.9 µM (inactive) | 19.6 µM (inactive) |
| [N-]=[N+]=Nc1ccccc1Oc1ccccc1 | > 100 µM (inactive) | > 100 µM (inactive) | > 100 µM (inactive) | > 100 µM (inactive) | > 100 µM (inactive) | > 100 µM (inactive) | > 100 µM (inactive) | > 100 µM (inactive) |  | > 100 µM (inactive) | > 100 µM (inactive) | > 100 µM (inactive) | > 100 µM (inactive) |  |  |  | > 100 µM (inactive) |  | > 100 µM (inactive) | > 100 µM (inactive) |
| COc1cccc2c3cccc(OC)c3c3[nH]cnc3c12 | 4.78 µM (inactive) | 15.9 µM (inactive) |  | 1.58 µM (inactive) | 17.7 µM (inactive) | 2.08 µM (inactive) | 1.72 µM (inactive) | 5.01 µM (inactive) | 0.923 µM (active) | 5.37 µM (inactive) | 16.5 µM (inactive) | 3.46 µM (inactive) | 16.7 µM (inactive) | 1.78 µM (inactive) | 1.31 µM (inactive) | 2.03 µM (inactive) | 8.81 µM (inactive) | 16.1 µM (inactive) | 4.3 µM (inactive) | 13.9 µM (inactive) |
| CCCCCC1=C/C(=C\c2[nH]c(-c3ccc[nH]3)cc2OC)N=C1C | < 0.01 µM (active) | 0.012 µM (active) |  | < 0.01 µM (active) | 0.0684 µM (active) | < 0.01 µM (active) | 0.0124 µM (active) | 0.0562 µM (active) | < 0.01 µM (active) | 0.0179 µM (active) | < 0.01 µM (active) | 0.0113 µM (active) | < 0.01 µM (active) | 0.0115 µM (active) | < 0.01 µM (active) | < 0.01 µM (active) | < 0.01 µM (active) | 0.0324 µM (active) | < 0.01 µM (active) | < 0.01 µM (active) |
| C=C1[C@H](OCC(C)C)[C@@H](OC(=O)C(C)CC)[C@@H](O)C(C)(C)/C=C/[C@H](C)C(=O)[C@@]2(O)C[C@H](C)[C@H](O)[C@@H]2[C@H]1OC(=O)C(C)CC (some centres undefined) | 2.39 µM (inactive) | 5.73 µM (inactive) |  | 4.1 µM (inactive) | 5.22 µM (inactive) | 0.991 µM (active) | 0.463 µM (active) | 14.5 µM (inactive) | 0.564 µM (active) | 6.37 µM (inactive) | 0.904 µM (active) | 2.84 µM (inactive) | 3.92 µM (inactive) | 6.14 µM (inactive) | 7.83 µM (inactive) | 2.82 µM (inactive) | 3.02 µM (inactive) | 4.63 µM (inactive) | 1.41 µM (inactive) | 4.94 µM (inactive) |
| Nc1ccn(C2CCC(CO)O2)c(=S)n1 (centres undefined) | > 100 µM (inactive) | > 100 µM (inactive) |  | > 100 µM (inactive) | > 100 µM (inactive) | > 100 µM (inactive) | > 100 µM (inactive) | > 100 µM (inactive) | > 100 µM (inactive) | > 100 µM (inactive) | > 100 µM (inactive) | > 100 µM (inactive) | > 100 µM (inactive) | > 100 µM (inactive) | > 100 µM (inactive) | > 100 µM (inactive) | > 100 µM (inactive) | > 100 µM (inactive) | 89.5 µM (inactive) | > 100 µM (inactive) |
| Cc1c(C)n(-c2ccccc2)c2nc([S+](C)[O-])nc([S+](C)[O-])c12 (centres undefined) | 17.6 µM (inactive) | 17.9 µM (inactive) |  | 2.56 µM (inactive) | 11.8 µM (inactive) | 2.09 µM (inactive) | 18.8 µM (inactive) | 17.1 µM (inactive) | 1.55 µM (inactive) | 15.3 µM (inactive) | 1.75 µM (inactive) | 15.2 µM (inactive) | 6.03 µM (inactive) | 2.92 µM (inactive) | 14.4 µM (inactive) | 7 µM (inactive) | 5.83 µM (inactive) | 0.755 µM (active) | 9.1 µM (inactive) | 2.61 µM (inactive) |
| COc1ccc(C(CC(C)=O)c2c(O)c3ccccc3oc2=O)cc1OC (centres undefined) | > 100 µM (inactive) | > 100 µM (inactive) |  | > 100 µM (inactive) | > 100 µM (inactive) | > 100 µM (inactive) | > 100 µM (inactive) | > 100 µM (inactive) | > 100 µM (inactive) | > 100 µM (inactive) | > 100 µM (inactive) | > 100 µM (inactive) | > 100 µM (inactive) | > 100 µM (inactive) | > 100 µM (inactive) | > 100 µM (inactive) | > 100 µM (inactive) | > 100 µM (inactive) | > 100 µM (inactive) | > 100 µM (inactive) |
| O=C(Cn1ccnc1[N+](=O)[O-])NCCO [ETANIDAZOLE] | > 100 µM (inactive) | > 100 µM (inactive) |  | > 100 µM (inactive) | 56.5 µM (inactive) | > 100 µM (inactive) | 27.5 µM (inactive) | > 100 µM (inactive) | > 100 µM (inactive) | > 100 µM (inactive) | > 100 µM (inactive) | 41.8 µM (inactive) | > 100 µM (inactive) | > 100 µM (inactive) | > 100 µM (inactive) | > 100 µM (inactive) | > 100 µM (inactive) | > 100 µM (inactive) | > 100 µM (inactive) | > 100 µM (inactive) |
| CCCNC1=C2CC(C)CC(OC)[C@@H](O)[C@H](C)/C=C(\C)C(OC(N)=O)C(OC)/C=C\C=C(/C)C(=O)NC(=CC1=O)C2=O (some centres undefined) | 0.222 µM (active) | 0.551 µM (active) |  | 0.443 µM (active) | 0.0975 µM (active) | 0.141 µM (active) | 0.0685 µM (active) | 0.637 µM (active) | 0.273 µM (active) | 0.0311 µM (active) | 0.0319 µM (active) | 0.264 µM (active) | 0.054 µM (active) | 1.56 µM (inactive) | 0.111 µM (active) | 0.411 µM (active) | 0.502 µM (active) | 12.3 µM (inactive) | 0.318 µM (active) | 1.65 µM (inactive) |
| N#C[BH2-][n+]1ccc(C(=O)NNCc2cccc(C(F)(F)F)c2)cc1 | 6.68 µM (inactive) | 3.27 µM (inactive) |  | 4.83 µM (inactive) | 4.92 µM (inactive) | 20.5 µM (inactive) | 20 µM (inactive) | 13.6 µM (inactive) | 28.4 µM (inactive) | 21.2 µM (inactive) | 14.1 µM (inactive) | 7.11 µM (inactive) | 4.59 µM (inactive) | 8.22 µM (inactive) | 33.1 µM (inactive) | 13.8 µM (inactive) | 33.7 µM (inactive) | 14.3 µM (inactive) | 3.85 µM (inactive) | 10.9 µM (inactive) |
